# Laboratory results from US3965109A, “Certain aryl amino pyridines” (priority 1971, dated 1976).
# Experiments:
# [1] = tested on: Wild oat; assay: Selective herbicidal activity; assay type: in vivo, Avenua fatua; conditions: 28 days, scale 0 to 10 (complete kill)
# Description: (§1) This Example illustrates the selective herbicidal activity of compounds No. 5 and 12 of Table 1. The compounds, formulated as in Example 5 were sprayed on to pots of soil previously sown with seeds of the plant species shown in Tables 13 and 14.
# [2] = tested on: Redshank; assay: Selective herbicidal activity; assay type: in vivo, Polygonum persicaria; conditions: 28 days, scale 0 to 10 (complete kill)
# Description: as §1
# Redshank Polygonum persicaria
# [3] = tested on: Speedwell; assay: Selective herbicidal activity; assay type: in vivo, Veronica spp; conditions: 28 days, scale 0 to 10 (complete kill)
# Description: as §1
# [4] = tested on: Aedes aegypti (mosquito adults); assay: Pest toxicity test; assay type: in vivo; conditions: 0.01% by weight; plywood; 1 day
# [5] = tested on: Tomato; assay: Herbicidal test, pre- and post-emergence; assay type: in vivo; conditions: 10 lb/acre (11.2 kg/ha); scale 0 (no effect) to 3 (complete kill)
# [6] = tested on: Groundsel; assay: Selective herbicidal activity; assay type: in vivo, Senecio vulgaris; conditions: 28 days, scale 0 to 10 (complete kill)
# Description: as §1
# Groundsel Senecio vulgaris
# [7] = tested on: White mustard; assay: Selective herbicidal activity; assay type: in vivo, Sinapis alba; conditions: 28 days, scale 0 to 10 (complete kill)
# Description: as §1
# White mustard Sinapis alba
# [8] = tested on: Venturia inaequalis (apple); assay: Fungicidal test against foliar disease G (foliage spray plus soil drench); assay type: in vivo; conditions: 100 ppm spray and drench; 21 days
# Experimental: This Example illustrates the fungicidal properties of compounds used as active ingredients in the compositions of the invention. The compounds were tested against a wide variety of foliar fungal diseases of plants. In the test, a composition comprising an aqueous solution or suspension of the test compound was sprayed on to the foliage or uninfected plants; the soil in which the plants were growing was also drenched with the composition. The compositions used for spraying and drencing contained 100 parts per million (ppm.) of the test compound except where otherwise stated in the table of results below. After spraying and drenching, the plants were then exposed to infection with the diseases it was desired to control, along with control plants not treated with the compound. After a period of days, depending upon the particular disease, the extent of the disease was visually assessed, as a percentage of the disease established upon the control plants which had not been treated with the compound under test, according to the grading scheme below
# In Table 2 below the names of the disease is given in the first column, and in the second column is given the time which elapsed between exposing the plants to infection and assessing the amount of disease.
# [9] = tested on: Maize; assay: Herbicidal test, pre- and post-emergence; assay type: in vivo; conditions: 10 lb/acre (11.2 kg/ha); scale 0 (no effect) to 3 (complete kill)
# [10] = tested on: Plutella maculipennis (diamond back moth larvae); assay: Pest toxicity test; assay type: in vivo; conditions: 0.1% by weight; mustard/paper; 2 days
# [11] = tested on: Tetranychus telarius (red spider mites, eggs); assay: Pest toxicity test; assay type: in vivo; conditions: 0.1% by weight; French bean; 3 days
# [12] = tested on: Sugar beet; assay: Further herbicidal test, various rates; assay type: in vivo; conditions: scale 0 to 5 (complete kill)
# [13] = tested on: Pieris brassicae (cabbage white caterpillars); assay: Pest toxicity test; assay type: in vivo; conditions: 0.1% by weight, 2 days
# [14] = tested on: Annual Nettle; assay: Selective herbicidal activity; assay type: in vivo, Urtica urens; conditions: 28 days, scale 0 to 10 (complete kill)
# Description: as §1
# Annual Nettle Urtica urens
# [15] = tested on: Megoura viceae; assay: Pest toxicity test; assay type: in vivo; conditions: 0.1% by weight; broad bean; 2 days
# [16] = tested on: Wheat; assay: Herbicidal test, pre- and post-emergence; assay type: in vivo; conditions: 10 lb/acre (11.2 kg/ha); scale 0 (no effect) to 3 (complete kill)
# [17] = tested on: Phaedon cochleariae (mustard beetles); assay: Pest toxicity test; assay type: in vivo; conditions: 0.1% by weight; mustard/paper; 2 days
# [18] = tested on: Pea; assay: Further herbicidal test, various rates; assay type: in vivo; conditions: scale 0 to 5 (complete kill)
# [19] = tested on: Chickweed; assay: Selective herbicidal activity; assay type: in vivo, Stellaria media; conditions: 28 days, scale 0 to 10 (complete kill)
# Description: as §1
# Chickweed Stellaria media
# [20] = tested on: Oat; assay: Further herbicidal test, various rates; assay type: in vivo; conditions: scale 0 to 5 (complete kill)
# [21] = tested on: Mayweed; assay: Selective herbicidal activity; assay type: in vivo, Tripleurospermum maritimum ssp. inodorum; conditions: 28 days, scale 0 to 10 (complete kill)
# Description: as §1
# Mayweed Tripleurospermum maritimum
# [22] = tested on: Piricularia oryzae (rice); assay type: in vivo; conditions: 100 ppm spray and drench; 7 days
# [23] = tested on: Barley; assay: Further herbicidal test, various rates; assay type: in vivo; conditions: scale 0 to 5 (complete kill)
# [24] = tested on: Tetranychus telarius (red spider mites, adults); assay: Pest toxicity test; assay type: in vivo; conditions: 0.1% by weight; French bean; 3 days
# [25] = tested on: Plasmopara viticola (vine); assay: Fungicidal test against foliar disease C (foliage spray plus soil drench); assay type: in vivo; conditions: 100 ppm spray and drench; 10 days
# [26] = tested on: Musca domestica (houseflies); assay: Pest toxicity test, contact test; assay type: in vivo; conditions: 0.1% by weight; milk/sugar; 2 days; flies sprayed directly
# [27] = tested on: Uncinula necator (vine); assay: Fungicidal test against foliar disease D (foliage spray plus soil drench); assay type: in vivo; conditions: 100 ppm spray and drench; 10 days
# [28] = tested on: Aedes aegypti (mosquito larvae); assay: Pest toxicity test; assay type: in vivo
# [29] = tested on: Puccinia recondita (wheat); assay: Fungicidal test against foliar disease A (foliage spray plus soil drench); assay type: in vivo; conditions: 100 ppm spray and drench; 10 days
# [30] = tested on: Kale; assay: Further herbicidal test, various rates; assay type: in vivo; conditions: scale 0 to 5 (complete kill)
# [31] = tested on: Barley; assay: Selective herbicidal activity; assay type: in vivo; conditions: for Damage to plants: 28 days, scale 0 to 10 (complete kill)
# Description: as §1
# (§2) Table 14 gives the results for compound No. 12 of Table 1 The figures are assessments of damage to the plants 23 days after treatment, on a scale of 0 to 5 where 0 is no effect and 5 is complete kill
# [32] = tested on: broadleaved plants; assay: Selective herbicidal activity; assay type: in vivo; conditions: Tables 13 and 14
# Description: as §1, §2
# [33] = tested on: Wheat; assay: Selective herbicidal activity; assay type: in vivo; conditions: for Damage to plants: 28 days, scale 0 to 10 (complete kill)
# Description: as §1, §2
# [34] = tested on: Rice; assay: Further herbicidal test, various rates; assay type: in vivo; conditions: scale 0 to 5 (complete kill)
# [35] = tested on: Aphis fabae; assay: Pest toxicity test; assay type: in vivo; conditions: 0.1% by weight; broad bean; 2 days
# [36] = tested on: Onion; assay: Further herbicidal test, various rates; assay type: in vivo; conditions: scale 0 to 5 (complete kill)
# [37] = tested on: Carrot; assay: Further herbicidal test, various rates; assay type: in vivo; conditions: scale 0 to 5 (complete kill)
# [38] = tested on: Lettuce; assay: Herbicidal test, pre- and post-emergence; assay type: in vivo; conditions: 10 lb/acre (11.2 kg/ha); scale 0 (no effect) to 3 (complete kill)
smiles,measurement,setting,value
O=[N+]([O-])c1ccc(Nc2c(Cl)c(F)nc(F)c2Cl)c(C(F)(F)F)c1 [Compound 5],Damage to plants,[1]; 0.5 kg/hectare,0
same,Damage to plants,[1]; 4 kg/hectare,5.5
same,Damage to plants,[2]; 0.5 kg/hectare,5
same,Damage to plants,[2]; 4 kg/hectare,10
same,Damage to plants,[3]; 0.5 kg/hectare,10
same,Damage to plants,[3]; 4 kg/hectare,10
same,Mortality grading (kill),[4],0 (O represents less than 30% kill)
same,"Damage to plants, post-emergence",[5],3
same,"Damage to plants, pre-emergence",[5],3
same,Damage to plants,[6]; 0.5 kg/hectare,4
same,Damage to plants,[6]; 4 kg/hectare,10
same,Damage to plants,[7]; 0.5 kg/hectare,0
same,Damage to plants,[7]; 4 kg/hectare,8.5
same,"Amount of disease grading, disease G",[8],3 (0 to 5)
same,"Damage to plants, post-emergence",[9],0
same,"Damage to plants, pre-emergence",[9],0
same,Mortality grading (kill),[10],1 (1 represents 30 - 49% kill)
same,Mortality grading (kill),[11],3 (3 represents over 90% kill)
same,"Damage to plants, post-emergence",[12]; 1 lb/acre,5
same,"Damage to plants, pre-emergence",[12]; 1 lb/acre,0
same,"Damage to plants, post-emergence",[12]; 5 lb/acre,5
same,"Damage to plants, pre-emergence",[12]; 5 lb/acre,5
same,Mortality grading (kill),[13],3 (3 represents over 90% kill)
same,Damage to plants,[14]; 0.5 kg/hectare,10
same,Damage to plants,[14]; 4 kg/hectare,10
same,Mortality grading (kill),[15],3 (3 represents over 90% kill)
same,"Damage to plants, post-emergence",[16],0
same,"Damage to plants, pre-emergence",[16],2
same,Mortality grading (kill),[17],0 (O represents less than 30% kill)
same,"Damage to plants, post-emergence",[18]; 1 lb/acre,4
same,"Damage to plants, pre-emergence",[18]; 1 lb/acre,0
same,"Damage to plants, post-emergence",[18]; 5 lb/acre,4
same,"Damage to plants, pre-emergence",[18]; 5 lb/acre,3
same,Damage to plants,[19]; 0.5 kg/hectare,8
same,Damage to plants,[19]; 4 kg/hectare,10
same,"Damage to plants, post-emergence",[20]; 1 lb/acre,3
same,"Damage to plants, pre-emergence",[20]; 1 lb/acre,2
same,"Damage to plants, post-emergence",[20]; 5 lb/acre,4
same,"Damage to plants, pre-emergence",[20]; 5 lb/acre,5
same,Damage to plants,[21]; 0.5 kg/hectare,6
same,Damage to plants,[21]; 4 kg/hectare,10
same,"Amount of disease grading, disease E",[22],0 (61 to 100)
same,"Damage to plants, post-emergence",[23]; 1 lb/acre,3
same,"Damage to plants, pre-emergence",[23]; 1 lb/acre,5
same,"Damage to plants, post-emergence",[23]; 5 lb/acre,3
same,"Damage to plants, pre-emergence",[23]; 5 lb/acre,5
same,Mortality grading (kill),[24],3 (3 represents over 90% kill)
same,"Amount of disease grading, disease C",[25],3 (0 to 5)
same,"Mortality grading (kill), contact test",[26],0 (O represents less than 30% kill)
same,"Amount of disease grading, disease D",[27],3 (0 to 5)
same,Mortality grading (kill),"[28]; 0.01% by weight, water, 1 day",0 (O represents less than 30% kill)
same,abnormal growth effects in larva of mosquitos,[28]; in vivo,abnormal growth effects
same,"Amount of disease grading, disease A",[29],3 (0 to 5)
same,"Damage to plants, post-emergence",[30]; 1 lb/acre,5
same,"Damage to plants, pre-emergence",[30]; 1 lb/acre,0
same,"Damage to plants, post-emergence",[30]; 5 lb/acre,5
same,"Damage to plants, pre-emergence",[30]; 5 lb/acre,5
same,Damage to plants,[31]; 0.5 kg/hectare,0
same,Damage to plants,[31]; 4 kg/hectare,0
same,damage to barley (in words),[31]; Tables 13 and 14,undamaged
same,damage to the broadleaved plants (in words),[32],caused damage to the broadleaved plants
same,Damage to plants,[33]; 0.5 kg/hectare,0
same,Damage to plants,[33]; 4 kg/hectare,0
same,damage to wheat (in words),[33]; Tables 13 and 14,undamaged
same,"Damage to plants, post-emergence",[34]; 1 lb/acre,0
same,"Damage to plants, pre-emergence",[34]; 1 lb/acre,3
same,"Damage to plants, post-emergence",[34]; 5 lb/acre,0
same,"Damage to plants, pre-emergence",[34]; 5 lb/acre,5
same,Mortality grading (kill),[35],3 (3 represents over 90% kill)
same,"Damage to plants, post-emergence",[36]; 1 lb/acre,3
same,"Damage to plants, pre-emergence",[36]; 1 lb/acre,0
same,"Damage to plants, post-emergence",[36]; 5 lb/acre,5
same,"Damage to plants, pre-emergence",[36]; 5 lb/acre,5
same,"Damage to plants, post-emergence",[37]; 1 lb/acre,5
same,"Damage to plants, pre-emergence",[37]; 1 lb/acre,2
same,"Damage to plants, post-emergence",[37]; 5 lb/acre,5
same,"Damage to plants, pre-emergence",[37]; 5 lb/acre,5
same,"Damage to plants, post-emergence",[38],3
same,"Damage to plants, pre-emergence",[38],3
